Laboratory results published in patent publication US20210163896A1, “METHOD FOR PRODUCING ANIMAL CELL CONTAINING DNA OF INTEREST USING MICRONUCLEATE CELL FUSION METHOD” (NATIONAL UNIVERSITY CORPORATION TOTTORI UNIVERSITY, priority 2018, published 2021).

Legend:
[1] = system: Human immortalized mesenchymal stem cells (hiMSC); assay: Micronucleation induction in human immortalized mesenchymal stem cells, DAPI staining; format: cell-based; conditions: 48 hours
Description: Human immortalized mesenchymal stem cells (hiMSC: provided by Dr. Toguchida, Kyoto University) were seeded in individual wells of a 6-well plate at a density of 5×10^5 cells per well and cultured at 37° C. in the condition of 5% CO2 for 24 hours. For the micro nucleation induction experiment, 26 conditions in total were designed based on treatments with colcemid (0.05 μg/mL, 0.1 μg/mL, 0.2 μg/mL), MAS (0.1 μg/mL, 0.2 μg/mL, 0.4 μg/mL) and paclitaxel (0.8 nM, 4 nM, 20 nM, 100 nM, 400 nM), with the addition of reversine (no addition, 500 nM, 1000 nM, 1500 nM) during the treatments, and the cells were cultured at 37° C. in the condition of 5% CO2 for 48 hours.
In order to observe living cells after micronucleation induction, the cells were fixed with 4% paraformaldehyde and stained with DAPI (concentration: 1 μg/mL) for 15 minutes. The fixed cells were observed by fluorescence microscopy and the micronuclear formation induction rates were compared. Whether or not micronuclei were formed in individual cells was observed and the results are shown in a figure (FIG. 2).

Human iPS cells = assay: Micronucleation induction in human iPS cells, microscopic observation; format: cell-based; conditions: 48 hours, MAS 0.2 μg/mL compared to colcemid 0.25 μg/mL, paclitaxel 20-400 nM, reversine 0-1500 nM added
Description: Human iPS cells were seeded to a 6-well plate previously coated with 0.5 μg/cm^2 Laminin™-511 (Nippi. Inc.) at a density of 5×10^5 cells per well, and 10 μM Y-27632 was added. The human iPS cells were incubated at 37° C. in the condition of 5% CO2 for 24 hours. For a micronucleation induction experiment, 22 conditions in total were designed based on treatments with colcemid 0.25 μg/mL, MAS 0.2 μg/mL or paclitaxel (20 nM, 40 nM, 60 nM, 100 nM, 400 nM) with the addition of reversine (no addition, 500 nM, 1000 nM, 1500 nM) during the treatments, and the cells were cultured at 37° C. in the condition of 5% CO2 for 48 hours.
After micronucleation induction, the micronucleation induction rates were compared based on microscopic observation.

CHO MHG#4a cells = assay: Micronucleation induction in CHO cells, fluorescence-microscopic observation; format: cell-based, Chinese hamster; conditions: 72 hours, paclitaxel 0-1920 nM, reversine 0-12288 nM
Description: Ninety six conditions, which were designed by combinations of paclitaxel (0 nM, 96 nM, 192 nM, 384 nM, 768 nM, 1152 nM, 1536 nM, 1920 nM) and reversine (0 nM, 192 nM, 384 nM, 768 nM, 1536 nM, 3072 nM, 4608 nM, 6144 nM, 7680 nM, 9216 nM, 10752 nM, 12288 nM), were assigned to the wells. Culture was carried out at 37° C. in the condition of 5% CO2 for 72 hours.
After micronucleation induction, the micronucleation induction rates were compared based on observation by fluorescence microscopy.

SMILES	micronucleation induction, usefulness of agent [1]	micronucleation induction rate (Human iPS cells)	micronucleation rate (CHO MHG#4a cells)
c1nc2nc(Nc3ccc(N4CCOCC4)cc3)nc(NC3CCCCC3)c2[nH]1 [reversine]	useful	useful	micronucleation rate increases in a concentration dependent manner
CC(=O)O[C@H]1C(=O)[C@@]2(C)[C@H]([C@H](OC(=O)c3ccccc3)[C@]3(O)C[C@H](OC(=O)[C@H](O)[C@@H](NC(=O)c4ccccc4)c4ccccc4)C(C)=C1C3(C)C)[C@]1(OC(C)=O)CO[C@@H]1C[C@@H]2O [paclitaxel]	effective	micronucleation rate increases in a concentration dependent manner	micronucleation rate increases in a concentration dependent manner
